Experimental data reported in the supplement of paper PMC4862054.

Legend:
Conditions in all cases: incubation time: 72 h
[1] = tested on: BT-474; test: normalised response (% of control), CellTox Green; higher = less cell death (100 = DMSO, 0 = benzethonium chloride kill control)
Summary of the method: (§1)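 In 384-well plates holding compound at 5 concentrations in 10-fold steps over a 10,000-fold range specific to each compound, breast cancer cell lines were seeded as 20 µl suspension and incubated 72 h. CellTox Green fluorescence was measured at 485/520 nm, after which CellTiter-Glo luminescence was measured following 10 min at room temperature. Plate signals were normalised to 0.1 % DMSO (100) and a positive kill control (0), and each value is the normalised signal at a single concentration.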

[2] = tested on: BT-549; test: as above
Summary of the method: as §1

[3] = tested on: CAL-120; test: as above
Summary of the method: as §1

[4] = tested on: CAL-148; test: as above
Summary of the method: as §1

[5] = tested on: CAL-51; test: as above
Summary of the method: as §1

[6] = tested on: CAL-85-1; test: as above
Summary of the method: as §1

[7] = tested on: DU-4475; test: as above
Summary of the method: as §1

[8] = tested on: HCC1143; test: as above
Summary of the method: as §1

[9] = tested on: HCC1599; test: as above
Summary of the method: as §1

[10] = tested on: HCC1937; test: as above
Summary of the method: as §1

[11] = tested on: Hs578T; test: as above
Summary of the method: as §1

[12] = tested on: MCF-10A; test: as above
Summary of the method: as §1

[13] = tested on: MDA-MB-231; test: as above
Summary of the method: as §1

[14] = tested on: MDA-MB-436; test: as above
Summary of the method: as §1

[15] = tested on: MDA-MB-453; test: as above
Summary of the method: as §1

[16] = tested on: MDA-MB-468; test: as above
Summary of the method: as §1

[17] = tested on: MFM-223; test: as above
Summary of the method: as §1

[18] = tested on: BT-474; test: normalised response (% of control), CellTiter-Glo; higher = more viable cells (100 = DMSO, 0 = benzethonium chloride kill control)
Protocol: (§2)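 DSRT, 72 h incubation, CellTox Green / CellTiter-Glo readout. Signal is normalised to DMSO and benzethonium chloride controls. Value is the normalised response at dose 3.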

[19] = tested on: BT-549; test: as above
Protocol: as §2

[20] = tested on: CAL-120; test: as above
Protocol: as §2

[21] = tested on: CAL-148; test: as above
Protocol: as §2

[22] = tested on: CAL-51; test: as above
Protocol: as §2

[23] = tested on: CAL-85-1; test: as above
Protocol: as §2

[24] = tested on: DU-4475; test: as above
Protocol: as §2

[25] = tested on: HCC1143; test: as above
Protocol: as §2

[26] = tested on: HCC1599; test: as above
Protocol: as §2

[27] = tested on: HCC1937; test: as above
Protocol: as §2

[28] = tested on: HDQ-P1; test: as above
Protocol: as §2

[29] = tested on: Hs578T; test: as above
Protocol: as §2

[30] = tested on: MCF-10A; test: as above
Protocol: as §2

[31] = tested on: MDA-MB-231; test: as above
Protocol: as §2

[32] = tested on: MDA-MB-436; test: as above
Protocol: as §2

[33] = tested on: MDA-MB-453; test: as above
Protocol: as §2

[34] = tested on: MDA-MB-468; test: as above
Protocol: as §2

[35] = tested on: MFM-223; test: as above
Protocol: as §2

[36] = tested on: SK-BR-3; test: as above
Protocol: as §2

[37] = tested on: HDQ-P1; test: normalised response (% of control), CellTox Green; higher = less cell death (100 = DMSO, 0 = benzethonium chloride kill control)
Summary of the method: as §1

Compound | normalised response [1] [%] | normalised response [2] [%] | normalised response [3] [%] | normalised response [4] [%] | normalised response [5] [%] | normalised response [6] [%] | normalised response [7] [%] | normalised response [8] [%] | normalised response [9] [%] | normalised response [10] [%] | normalised response [11] [%] | normalised response [12] [%] | normalised response [13] [%] | normalised response [14] [%] | normalised response [15] [%] | normalised response [16] [%] | normalised response [17] [%] | normalised response [18] [%] | normalised response [19] [%] | normalised response [20] [%] | normalised response [21] [%] | normalised response [22] [%] | normalised response [23] [%] | normalised response [24] [%] | normalised response [25] [%] | normalised response [26] [%] | normalised response [27] [%] | normalised response [28] [%] | normalised response [29] [%] | normalised response [30] [%] | normalised response [31] [%] | normalised response [32] [%] | normalised response [33] [%] | normalised response [34] [%] | normalised response [35] [%] | normalised response [36] [%] | normalised response [37] [%]
Cc1c(Cn2c(C)nc3c(C(=O)O)cc(N4CCOCC4)cc32)cccc1C(F)(F)F (100 nM) | 104 | 111 | 106 | 105 | 86.7 | 104 | 109 | 113 | 107 | 78 | 109 | 101 | 124 | 108 | 111 | 134 | 107 | 97.2 | 86.2 | 102 | 111 | 62.5 | 96.6 | 103 | 101 | 101 | 94.5 | 103 | 101 | 111 | 104 | 102 | 91.3 | 89.2 | 108 | 107 | 
CCCCC/C=C/C=C1/C(=O)C=C[C@@H]1C/C=C\CCCC(=O)O [15D-PGJ2] (8 nM) | 102 | 112 | 99.3 | 88.1 | 107 | 109 | 110 | 105 | 111 | 101 | 113 | 64.6 | 118 | 103 |  | 82 | 100 | 98.7 | 99.3 | 107 | 112 | 97.1 | 100 | 101 | 104 | 86.3 | 99.1 | 103 | 96.9 | 101 | 107 | 101 | 100 | 94 | 98.5 | 99.4 | 
CC(=O)OC[C@H]1O[C@@H]([S-])[C@H](OC(C)=O)[C@@H](OC(C)=O)[C@@H]1OC(C)=O.CCP(CC)CC.[Au+] [Auranofin] (25 nM) | 105 | 110 | 110 | 108 | 100 | 122 | 112 | 88.9 | 111 | 113 |  | 62.3 | 123 |  | 109 | 117 | 102 | 96.8 | 93.1 | 100 | 111 | 92.5 | 99 | 98.2 | 104 | 89.1 | 93.8 | 101 | 103 | 104 | 103 | 103 | 104 | 103 | 97.8 | 101 | 93.8
Cc1c(CN2CCN(C(=O)[C@H](C)O)CC2)sc2c(N3CCOCC3)nc(-c3cnc(N)nc3)nc12 [GDC-0980] (100 nM) | 101 | 106 | 102 |  | 112 | 106 | 99.9 | 113 | 106 | 114 |  | 83.3 | 81.2 | 108 | 98 | 124 | 105 | 93.5 | 90.1 | 96.2 | 102 | 86.3 | 99.9 | 98 | 92.9 | 98.3 | 89.3 | 84 | 86.2 | 90.8 | 97.1 | 92.5 | 75.8 | 95.9 | 93.6 | 72.5 | 110
Cc1cccc(-c2nn3c(c2-c2ccnc4ccc(C(N)=O)cc24)CCC3)n1 [Galunisertib] (10 nM) | 103 | 114 | 105 | 106 | 114 | 107 | 109 | 70.5 | 116 | 123 | 100 | 82.4 | 116 | 104 | 103 | 101 | 107 | 108 | 104 | 109 | 112 | 120 | 96.8 | 108 | 103 | 102 | 101 | 104 | 103 | 111 | 113 | 106 | 110 | 107 | 106 | 110 | 
O=C1c2c(O)ccc(O)c2C(=O)c2c(NCCNCCO)ccc(NCCNCCO)c21 [Mitoxantrone] (10 nM) | 101 | 94.3 | 101 |  | 104 | 96.2 | 99.9 | 111 | 96.5 | 91.8 |  | 107 | 104 | 93.1 | 107 | 129 | 97.3 | 96.1 | 96.7 | 104 | 98.6 | 93.5 | 97.8 | 95.8 | 104 | 97.2 | 101 | 106 | 102 | 96.2 | 99.8 | 92.7 | 99.3 | 95.6 | 94 | 89.1 | 
COc1nc(N)nc2c1ncn2[C@@H]1O[C@H](CO)[C@@H](O)[C@@H]1O [Nelarabine] (100 nM) | 75.7 | 98.7 | 98.4 | 104 | 93.8 | 90.6 | 95.2 |  | 87 | 88.7 | 107 |  | 92.1 | 90.5 | 97.5 | 135 | 100 | 89.2 | 98.1 | 94.2 | 83.2 | 90.7 | 94.7 | 93.6 | 103 | 103 | 95.5 | 95.9 | 87.1 | 84.9 | 94.2 | 94 | 87.2 | 95.6 | 89 | 77.8 | 
O=C(CCBr)N1CCN(C(=O)CCBr)CC1 [Pipobroman] (100 nM) | 87.5 | 70.2 | 101 | 105 | 101 | 109 | 101 | 108 | 96.6 |  |  | 84.8 | 94.4 | 101 |  |  | 103 | 102 | 97.6 | 102 | 105 | 88 | 101 | 106 | 105 | 115 | 106 | 102 | 105 | 106 | 105 | 91.5 | 93.2 | 102 | 103 | 107 | 107
CC(C)N(CCCNC(=O)Nc1ccc(C(C)(C)C)cc1)C[C@H]1O[C@@H](n2cc(Br)c3c(N)ncnc32)[C@H](O)[C@@H]1O [SGC0946] (100 nM) | 98.2 | 101 | 95.6 | 100 | 95.6 | 103 | 98.8 | 88.1 | 96.4 |  |  | 99 | 73.8 | 95.2 | 99.1 | 108 | 97.4 | 96 | 91.3 | 101 | 86.6 | 91.1 | 102 | 98 | 101 | 93.7 | 94.4 | 93 | 88.5 | 96 | 96 | 99.4 | 91 | 93.8 | 95.2 | 90 | 
